In ChEMBL document CHEMBL1136613, “2-(3,4-Dihydro-1H-isoquinolin-2yl)-pyridines as a novel class of NR1/2B subtype selective NMDA receptor antagonists” (Bioorg Med Chem Lett, 2003):
“And” between values parts separate entries of the source, which are not always exact repeats. Equal entries are not always repeated.

How the values were obtained:
[1] = molecular target: T1, Muscarinic acetylcholine receptor M1 (Homo sapiens, UniProt P11229)
T1 sequence (P11229 whole entry): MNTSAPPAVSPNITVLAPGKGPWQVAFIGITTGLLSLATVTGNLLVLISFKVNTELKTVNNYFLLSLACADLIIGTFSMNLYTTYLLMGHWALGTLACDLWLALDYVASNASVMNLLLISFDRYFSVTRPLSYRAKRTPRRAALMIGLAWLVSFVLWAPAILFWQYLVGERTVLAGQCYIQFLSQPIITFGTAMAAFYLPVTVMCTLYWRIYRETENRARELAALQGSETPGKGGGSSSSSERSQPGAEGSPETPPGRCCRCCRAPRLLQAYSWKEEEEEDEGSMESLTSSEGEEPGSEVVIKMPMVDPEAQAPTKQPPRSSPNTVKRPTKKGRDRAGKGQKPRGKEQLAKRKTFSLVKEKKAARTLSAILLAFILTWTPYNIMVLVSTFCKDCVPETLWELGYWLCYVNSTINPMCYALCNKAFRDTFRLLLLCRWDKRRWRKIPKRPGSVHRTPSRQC
Description: Displacement of [3H]pirenzepine from M1 receptor

[2] = molecular target: Glutamate [NMDA] receptor
Description: Binding affinity against NMDA receptor by displacement of [3H]Ro-256981

[3] = molecular target: T2, Adrenergic receptor alpha-1 (Homo sapiens, UniProt P35348+P25100+P35368); assay: Displacement of [3H]prazosin from Alpha-1 adrenergic receptor; assay type: protein assay
T2 sequence (P35348 whole entry): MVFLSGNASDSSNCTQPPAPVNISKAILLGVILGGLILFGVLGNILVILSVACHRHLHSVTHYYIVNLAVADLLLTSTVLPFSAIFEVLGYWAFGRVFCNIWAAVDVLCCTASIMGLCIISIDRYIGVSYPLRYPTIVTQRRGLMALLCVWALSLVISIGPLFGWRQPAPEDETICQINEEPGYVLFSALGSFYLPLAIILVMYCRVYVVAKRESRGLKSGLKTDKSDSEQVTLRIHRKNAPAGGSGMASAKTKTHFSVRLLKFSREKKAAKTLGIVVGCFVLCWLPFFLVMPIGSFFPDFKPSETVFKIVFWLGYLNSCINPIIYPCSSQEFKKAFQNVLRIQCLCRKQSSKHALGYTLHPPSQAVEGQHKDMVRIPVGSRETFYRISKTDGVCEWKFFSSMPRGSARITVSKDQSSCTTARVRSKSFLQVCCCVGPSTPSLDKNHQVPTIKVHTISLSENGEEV
T2 sequence (P25100 whole entry): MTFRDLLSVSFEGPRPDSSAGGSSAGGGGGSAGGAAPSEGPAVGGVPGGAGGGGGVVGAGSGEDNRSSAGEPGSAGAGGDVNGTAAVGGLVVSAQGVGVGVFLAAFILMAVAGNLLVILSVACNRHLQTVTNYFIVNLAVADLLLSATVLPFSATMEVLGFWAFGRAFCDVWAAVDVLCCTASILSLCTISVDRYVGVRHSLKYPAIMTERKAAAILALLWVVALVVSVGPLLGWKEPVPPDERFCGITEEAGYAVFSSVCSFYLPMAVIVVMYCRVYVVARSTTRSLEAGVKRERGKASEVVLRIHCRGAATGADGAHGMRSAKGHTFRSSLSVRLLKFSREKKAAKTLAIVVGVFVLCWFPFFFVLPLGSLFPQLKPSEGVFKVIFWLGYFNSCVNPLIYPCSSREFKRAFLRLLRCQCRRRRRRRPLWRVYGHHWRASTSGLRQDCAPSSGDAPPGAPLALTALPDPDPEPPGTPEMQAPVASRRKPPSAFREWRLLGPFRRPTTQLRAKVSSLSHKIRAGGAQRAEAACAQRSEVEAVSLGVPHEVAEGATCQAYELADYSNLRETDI
T2 sequence (P35368 whole entry): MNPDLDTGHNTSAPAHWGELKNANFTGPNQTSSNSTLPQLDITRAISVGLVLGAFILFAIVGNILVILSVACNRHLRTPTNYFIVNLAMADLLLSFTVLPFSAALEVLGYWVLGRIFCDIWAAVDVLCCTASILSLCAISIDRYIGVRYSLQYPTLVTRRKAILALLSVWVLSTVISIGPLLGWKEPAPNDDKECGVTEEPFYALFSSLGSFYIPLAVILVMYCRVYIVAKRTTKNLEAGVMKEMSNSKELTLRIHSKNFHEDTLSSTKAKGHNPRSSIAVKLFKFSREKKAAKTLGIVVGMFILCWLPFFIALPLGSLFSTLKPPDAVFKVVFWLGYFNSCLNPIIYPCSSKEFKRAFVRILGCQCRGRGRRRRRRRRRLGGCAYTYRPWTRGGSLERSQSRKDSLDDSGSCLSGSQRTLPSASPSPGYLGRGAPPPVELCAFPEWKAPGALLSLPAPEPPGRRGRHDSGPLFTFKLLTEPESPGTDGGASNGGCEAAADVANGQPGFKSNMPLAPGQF

Mus musculus [4] = assay: In vivo activity was measured in mice after ip administration using standard sound-induced seizures assay; assay type: functional
Mus musculus [5] = assay: In vivo activity was measured i mice after ip administration using standard sound-induced seizures assay; assay type: functional

Description for physchem: Dissociation constant (pKa)

| Structure (SMILES) | Ki [1] [nM] | pKa (physchem) | Ki [2] | Ki [3] [nM] | ED50 (Mus musculus [4]) [mg/kg] | ED50 (Mus musculus [5]) [mg/kg] |
| --- | --- | --- | --- | --- | --- | --- |
| CNc1ccnc(N2CCc3ccccc3C2)c1 | 1200 | 8.8 | 8 nM and 19 nM |  |  |  |
| Cc1cc(N)cc(N2CCc3ccccc3C2)n1 | 2600 | 9 | 5 nM | 730 |  |  |
| CCc1cc(N)cc(N2CCc3ccccc3C2)n1 | 2500 | 9 | 3 nM | 670 |  |  |
| Nc1ccnc(N2CCc3ccccc3C2)c1 | 1900 | 8.5 | 3 nM | 1200 | 7 |  |
| CN(C)c1ccnc(N2CCc3ccccc3C2)c1 | 150 | 8.8 | 8 nM | 490 |  |  |
| Cc1ccnc(N2CCc3ccccc3C2)c1 |  | 6.6 | 380 nM |  |  |  |
| c1ccc(N2CCc3ccccc3C2)nc1 |  | 6.4 | 750 nM |  |  |  |
| Cc1cc(N)nc(N2CCc3ccccc3C2)c1 |  | 6.5 | 110 nM |  |  |  |
| Brc1ccc(N2CCc3ccccc3C2)nc1 |  | 3 | 7500 nM |  |  |  |
| Cc1cnc(N2CCc3ccccc3C2)cc1NCCO | 6500 | 9 | 8 nM | 3200 |  |  |
| CC(=O)Nc1ccnc(N2CCc3ccccc3C2)c1 |  | 6.5 | 380 nM |  |  |  |
| Nc1cccc(N2CCc3ccccc3C2)n1 |  | 6 | 190 nM |  |  |  |
| Cc1ccc(N2CCc3ccccc3C2)nc1 |  | 6.5 |  |  |  |  |
| Nc1cc(N2CCc3ccccc3C2)nc2c1CCC2 | 510 | 9.4 | 9 nM | 730 |  |  |
| Cc1cnc(N2CCc3ccccc3C2)cc1N | 870 | 8.7 | 4 nM | 1000 |  |  |
| Brc1cccc(N2CCc3ccccc3C2)n1 |  | 2 | 15000 nM |  |  |  |
| CCOC(=O)C(=O)Nc1cc(C)nc(N2CCc3ccccc3C2)c1 |  | 6.5 | 260 nM |  |  |  |
| Cc1cc(NCCO)cc(N2CCc3ccccc3C2)n1 | 3800 | 9.2 | 4 nM | 3300 |  |  |
| OCCNc1ccnc(N2CCc3ccccc3C2)c1 | 6100 | 8.9 | 2 nM | 2300 | 13 |  |
| c1ccc(CNc2ccnc(N3CCc4ccccc4C3)c2)cc1 |  | 8.6 | 150 nM |  |  |  |
| Nc1cccnc1N1CCc2ccccc2C1 |  | 5 | 380 nM |  |  |  |
| Nc1ccc(N2CCc3ccccc3C2)nc1 |  | 5.8 | 1100 nM |  |  |  |
| Nc1cc(CO)nc(N2CCc3ccccc3C2)c1 | 1100 | 8.1 | 4 nM | 1700 |  |  |
| OCCNc1cc(N2CCc3ccccc3C2)nc2ccccc12 |  |  | 3.5 nM |  |  | < 12 |
| C[C@@H](CN1CCC(Cc2ccccc2)CC1)[C@@H](O)c1ccc(O)cc1 (single isomer, unassigned) |  |  | 6 nM |  | 13 |  |
| C[C@@H]([C@@H](O)c1ccc(O)cc1)N1CCC(O)(c2ccccc2)CC1 [TRAXOPRODIL] |  |  |  |  | 13 |  |
